Test results published in ChEMBL document CHEMBL1140277, “Antibiotics GE23077, novel inhibitors of bacterial RNA polymerase. Part 3: Chemical derivatization” (Bioorg Med Chem Lett, 2005).
Converted amounts (≈) assume the structure as drawn. Numbered stars: 1 amine (or outer) side, 2 acyl side, 3 side chain; on linkers, the order of the positions; unused ones are H or OH. Square brackets hold non-standard residues; d marks the D form. Peptide text beside a SMILES is read from it. * marks the point of attachment. ξ: configuration not given here. ξGln(3,4-(OH)2) = NC(=O)C(O)C(O)C(N)C(=O)O; isoSer(2S) = O=C([C@@H](O)CN[*:1])[*:2]; ξAllylGly = C=CCC(N)C(=O)O; X1 = CC(NCc1ccccc1)C(=O)*; ξE = NC(CCC(=O)O)C(=O)O; Dap = NC[C@H](N)C(=O)O; X2 = C/C=C(/C)C(=O)*

Key:
[1] = Minimum inhibitory concentration against Moraxella catarrhalis using broth microdilution method; format: functional
[2] = Inhibitory concentration against RNA polymerase from Escherichia coli using cell freei transcription assay; format: functional

| Structure (SMILES) | MIC [1] [µg/mL] | IC50 [2] [µg/mL] |
| --- | --- | --- |
| CC(NCc1cc(F)c(F)c(F)c1)C(=O)NC[C@@H]1NC(=O)C(C(=O)O)NC(=O)[C@@H](O)CNC(=O)[C@H]([C@@H](C)O)NC(=O)C(C(O)C(O)C(N)=O)NC(=O)[C@H](C(C)C)NC(=O)[C@H](CO)NC1=O (some centres undefined) | 64 (≈ 68.3 µM) | 0.06 (≈ 0.064 µM) |
| CC(NCC(F)(F)F)C(=O)NC[C@@H]1NC(=O)C(C(=O)O)NC(=O)[C@@H](O)CNC(=O)[C@H]([C@@H](C)O)NC(=O)C(C(O)C(O)C(N)=O)NC(=O)[C@H](C(C)C)NC(=O)[C@H](CO)NC1=O (some centres undefined) | > 512 | 0.17 (≈ 0.194 µM) |
| CC(NCC1CCCCC1)C(=O)NC[C@@H]1NC(=O)C(C(=O)O)NC(=O)[C@@H](O)CNC(=O)[C@H]([C@@H](C)O)NC(=O)C(C(O)C(O)C(N)=O)NC(=O)[C@H](C(C)C)NC(=O)[C@H](CO)NC1=O (some centres undefined) | 16 (≈ 18 µM) | 0.42 (≈ 0.472 µM) |
| CC(NCc1ccccc1)C(=O)NC[C@@H]1NC(=O)C(C(=O)O)NC(=O)[C@@H](O)CNC(=O)[C@H]([C@@H](C)O)NC(=O)C(C(O)C(O)C(N)=O)NC(=O)[C@H](C(C)C)NC(=O)[C@H](CO)NC1=O (some centres undefined) | 32 (≈ 36.2 µM) | 0.07 (≈ 0.0793 µM) |
| CCCCCCCCc1ccc(C(=O)NC(C)C(=O)NC[C@@H]2NC(=O)C(C(=O)O)NC(=O)[C@@H](O)CNC(=O)[C@H]([C@@H](C)O)NC(=O)C(C(O)C(O)C(N)=O)NC(=O)[C@H](C(C)C)NC(=O)[C@H](CO)NC2=O)cc1 (some centres undefined) | > 512 | 0.07 (≈ 0.0694 µM) |
| C/C=C(/C)C(=O)NC[C@@H]1NC(=O)C(C(=O)OC)NC(=O)[C@@H](O)CNC(=O)[C@H]([C@@H](C)O)NC(=O)C(C(O)C(O)CN)NC(=O)[C@H](C(C)C)NC(=O)[C@H](CO)NC1=O (some centres undefined) | 32 (≈ 39.8 µM) | 3.14 (≈ 3.91 µM) |
| CC(NCc1ccc(C(F)(F)F)cc1)C(=O)NC[C@@H]1NC(=O)C(C(=O)O)NC(=O)[C@@H](O)CNC(=O)[C@H]([C@@H](C)O)NC(=O)C(C(O)C(O)C(N)=O)NC(=O)[C@H](C(C)C)NC(=O)[C@H](CO)NC1=O (some centres undefined) | 256 (≈ 269 µM) | 0.05 (≈ 0.0526 µM) |
| C/C=C(/C)C(=O)NC[C@@H]1NC(=O)CNC(=O)[C@@H](O)CNC(=O)[C@H]([C@@H](C)O)NC(=O)C(C(O)C(O)C(N)=O)NC(=O)[C@H](C(C)C)NC(=O)[C@H](CO)NC1=O (stereo partly drawn) (cyclo([Dap](X2)SV[ξGln(3,4-(OH)2)]T[isoSer(2S)]G)) | 16 (≈ 21.1 µM) | 0.65 (≈ 0.856 µM) |
| C=CCOC(=O)C1NC(=O)[C@@H](O)CNC(=O)[C@H]([C@@H](C)O)NC(=O)C(C(O)C(O)C(N)=O)NC(=O)[C@H](C(C)C)NC(=O)[C@H](CO)NC(=O)[C@H](CNC(=O)/C(C)=C\C)NC1=O (some centres undefined) | – | 0.4 (≈ 0.474 µM) |
| CC(NC(=O)Cc1ccc(-c2ccccc2)cc1)C(=O)NC[C@@H]1NC(=O)C(C(=O)O)NC(=O)[C@@H](O)CNC(=O)[C@H]([C@@H](C)O)NC(=O)C(C(O)C(O)C(N)=O)NC(=O)[C@H](C(C)C)NC(=O)[C@H](CO)NC1=O (some centres undefined) | > 512 | 0.22 (≈ 0.223 µM) |
| C/C=C(/C)C(=O)NC[C@@H]1NC(=O)C(CCC(=O)O)NC(=O)[C@@H](O)CNC(=O)[C@H]([C@@H](C)O)NC(=O)C(C(O)C(O)C(N)=O)NC(=O)[C@H](C(C)C)NC(=O)[C@H](CO)NC1=O (stereo partly drawn) (cyclo([Dap](X2)SV[ξGln(3,4-(OH)2)]T[isoSer(2S)][ξE])) | 8 (≈ 9.62 µM) | 0.2 (≈ 0.24 µM) |
| C/C=C(/C)C(=O)NC[C@@H]1NC(=O)C(C(=O)N(C)OC)NC(=O)[C@@H](O)CNC(=O)[C@H]([C@@H](C)O)NC(=O)C(C(O)C(O)C(N)=O)NC(=O)[C@H](C(C)C)NC(=O)[C@H](CO)NC1=O (some centres undefined) | – | 0.4 (≈ 0.472 µM) |
| C/C=C(/C)C(=O)NC[C@@H]1NC(=O)C(C(=O)OC)NC(=O)[C@@H](O)CNC(=O)[C@H]([C@@H](C)O)NC(=O)C(C(O)C(O)CNC(=O)C(CCCC)CCCCCC)NC(=O)[C@H](C(C)C)NC(=O)[C@H](CO)NC1=O (some centres undefined) | > 512 | > 3.2 |
| C/C=C(/C)C(=O)NC[C@@H]1NC(=O)C(C(=O)OC)NC(=O)[C@@H](O)CNC(=O)[C@H]([C@@H](C)O)NC(=O)C(C(O)C(O)CNC(=O)/C=C/c2ccccc2)NC(=O)[C@H](C(C)C)NC(=O)[C@H](CO)NC1=O (some centres undefined) | > 512 | > 3.2 |
| CCCCCCC(CCCC)C(=O)NC(C)C(=O)NC[C@@H]1NC(=O)C(C(=O)O)NC(=O)[C@@H](O)CNC(=O)[C@H]([C@@H](C)O)NC(=O)C(C(O)C(O)C(N)=O)NC(=O)[C@H](C(C)C)NC(=O)[C@H](CO)NC1=O (some centres undefined) | 512 (≈ 525 µM) | 0.13 (≈ 0.133 µM) |
| C=CCC1NC(=O)[C@@H](O)CNC(=O)[C@H]([C@@H](C)O)NC(=O)C(C(O)C(O)C(N)=O)NC(=O)[C@H](C(C)C)NC(=O)[C@H](CO)NC(=O)[C@H](CNC(=O)/C(C)=C\C)NC1=O (stereo partly drawn) (cyclo([Dap](X2)SV[ξGln(3,4-(OH)2)]T[isoSer(2S)][ξAllylGly])) | 32 (≈ 40 µM) | 2.24 (≈ 2.8 µM) |

| Structure (SMILES) | MIC [1] [µg/mL] | IC50 [2] [µg/mL] |
| --- | --- | --- |
| CC(N)C(=O)NC[C@@H]1NC(=O)C(C(=O)O)NC(=O)[C@@H](O)CNC(=O)[C@H]([C@@H](C)O)NC(=O)C(C(O)C(O)C(N)=O)NC(=O)[C@H](C(C)C)NC(=O)[C@H](CO)NC1=O (some centres undefined) | 64 (≈ 80.7 µM) | 0.28 (≈ 0.353 µM) |
| CC(NCc1ccccc1)C(=O)NC[C@@H]1NC(=O)CNC(=O)[C@@H](O)CNC(=O)[C@H]([C@@H](C)O)NC(=O)C(C(O)C(O)C(N)=O)NC(=O)[C@H](C(C)C)NC(=O)[C@H](CO)NC1=O (stereo partly drawn) (cyclo([Dap](X1)SV[ξGln(3,4-(OH)2)]T[isoSer(2S)]G)) | 128 (≈ 153 µM) | 1.05 (≈ 1.25 µM) |
| C/C=C(/C)C(=O)NC[C@@H]1NC(=O)C(C(=O)N[C@@H](C)C(=O)N[C@@H](C)C(=O)OC)NC(=O)[C@@H](O)CNC(=O)[C@H]([C@@H](C)O)NC(=O)C(C(O)C(O)C(N)=O)NC(=O)[C@H](C(C)C)NC(=O)[C@H](CO)NC1=O (some centres undefined) | 64 (≈ 66.7 µM) | > 3.2 |
| C/C=C(/C)C(=O)NC[C@@H]1NC(=O)C(C(=O)NCc2ccccc2)NC(=O)[C@@H](O)CNC(=O)[C@H]([C@@H](C)O)NC(=O)C(C(O)C(O)C(N)=O)NC(=O)[C@H](C(C)C)NC(=O)[C@H](CO)NC1=O (some centres undefined) | 128 (≈ 143 µM) | 0.3 (≈ 0.336 µM) |
| CCCCCCCCC(=O)NC(C)C(=O)NC[C@@H]1NC(=O)C(C(=O)O)NC(=O)[C@@H](O)CNC(=O)[C@H]([C@@H](C)O)NC(=O)C(C(O)C(O)C(N)=O)NC(=O)[C@H](C(C)C)NC(=O)[C@H](CO)NC1=O (some centres undefined) | 256 (≈ 274 µM) | 0.09 (≈ 0.0965 µM) |
| CC(NC(=O)/C=C/c1ccccc1)C(=O)NC[C@@H]1NC(=O)C(C(=O)O)NC(=O)[C@@H](O)CNC(=O)[C@H]([C@@H](C)O)NC(=O)C(C(O)C(O)C(N)=O)NC(=O)[C@H](C(C)C)NC(=O)[C@H](CO)NC1=O (some centres undefined) | 128 (≈ 139 µM) | 0.08 (≈ 0.0867 µM) |
| C/C=C(/C)C(=O)NC[C@@H]1NC(=O)C(C(=O)NC(Cc2ccc(O)cc2)C(=O)O)NC(=O)[C@@H](O)CNC(=O)[C@H]([C@@H](C)O)NC(=O)C(C(O)C(O)C(N)=O)NC(=O)[C@H](C(C)C)NC(=O)[C@H](CO)NC1=O (some centres undefined) | 512 (≈ 529 µM) | – |
| CC(O)C(=O)NC[C@@H]1NC(=O)C(C(=O)O)NC(=O)[C@@H](O)CNC(=O)[C@H]([C@@H](C)O)NC(=O)C(C(O)C(O)C(N)=O)NC(=O)[C@H](C(C)C)NC(=O)[C@H](CO)NC1=O (some centres undefined) | 64 (≈ 80.6 µM) | 0.11 (≈ 0.139 µM) |
| CC(=O)C(=O)NC[C@@H]1NC(=O)C(C(=O)O)NC(=O)[C@@H](O)CNC(=O)[C@H]([C@@H](C)O)NC(=O)C(C(O)C(O)C(N)=O)NC(=O)[C@H](C(C)C)NC(=O)[C@H](CO)NC1=O (some centres undefined) | 8 (≈ 10.1 µM) | 0.07 (≈ 0.0884 µM) |
| CC(NCc1cc(C(F)(F)F)cc(C(F)(F)F)c1)C(=O)NC[C@@H]1NC(=O)C(C(=O)O)NC(=O)[C@@H](O)CNC(=O)[C@H]([C@@H](C)O)NC(=O)C(C(O)C(O)C(N)=O)NC(=O)[C@H](C(C)C)NC(=O)[C@H](CO)NC1=O (some centres undefined) | 512 (≈ 503 µM) | 0.24 (≈ 0.236 µM) |
| C/C=C(/C)C(=O)NC[C@@H]1NC(=O)[C@@H](C(=O)O)NC(=O)[C@@H](O)CNC(=O)[C@H]([C@@H](C)O)NC(=O)C(C(O)C(O)C(N)=O)NC(=O)[C@H](C(C)C)NC(=O)[C@H](CO)NC1=O (some centres undefined) | 8 (≈ 9.95 µM) | 0.03 (≈ 0.0373 µM) |
| C/C=C(/C)C(=O)NC[C@@H]1NC(=O)C(C(=O)OCC)NC(=O)[C@@H](O)CNC(=O)[C@H]([C@@H](C)O)NC(=O)C(C(O)C(O)C(N)=O)NC(=O)[C@H](C(C)C)NC(=O)[C@H](CO)NC1=O (some centres undefined) | 64 (≈ 76.9 µM) | 0.1 (≈ 0.12 µM) |
| CCCCCCCCCCCCCCCCCC(=O)NC(C)C(=O)NC[C@@H]1NC(=O)[C@@H](C(=O)O)NC(=O)[C@@H](O)CNC(=O)[C@H]([C@@H](C)O)NC(=O)C(C(O)C(O)C(N)=O)NC(=O)[C@H](C(C)C)NC(=O)[C@H](CO)NC1=O (some centres undefined) | > 512 | 0.57 (≈ 0.538 µM) |
| C/C=C(/C)C(=O)NC[C@@H]1NC(=O)C(C(=O)OC)NC(=O)[C@@H](O)CNC(=O)[C@H]([C@@H](C)O)NC(=O)C(C(O)C(O)C(N)=O)NC(=O)[C@H](C(C)C)NC(=O)[C@H](CO)NC1=O (some centres undefined) | 8 (≈ 9.78 µM) | 0.15 (≈ 0.183 µM) |
| C/C=C(/C)C(=O)NC[C@@H]1NC(=O)C(C(=O)OC)NC(=O)[C@@H](O)CNC(=O)[C@H]([C@@H](C)O)NC(=O)C(C(O)C(O)CNC(=O)Cc2ccc(-c3ccccc3)cc2)NC(=O)[C@H](C(C)C)NC(=O)[C@H](CO)NC1=O (some centres undefined) | > 512 | > 3.2 |
